The values that follow come from patent publication US20150297733A1 (TRIMEL BIOPHARMA SRL, priority 2012, published 2015).

Each structure is given as a SMILES string. Read-outs that look alike come from different tables or passages of the source. Bounds are passed on as bounds.

For data set [1] the following is noted: nasal, cited from earlier work.
Data set [2] has as its target T1, sex hormone binding globulin (SHBG) (Homo sapiens, UniProt P04278).
T1 sequence (P04278 30-402): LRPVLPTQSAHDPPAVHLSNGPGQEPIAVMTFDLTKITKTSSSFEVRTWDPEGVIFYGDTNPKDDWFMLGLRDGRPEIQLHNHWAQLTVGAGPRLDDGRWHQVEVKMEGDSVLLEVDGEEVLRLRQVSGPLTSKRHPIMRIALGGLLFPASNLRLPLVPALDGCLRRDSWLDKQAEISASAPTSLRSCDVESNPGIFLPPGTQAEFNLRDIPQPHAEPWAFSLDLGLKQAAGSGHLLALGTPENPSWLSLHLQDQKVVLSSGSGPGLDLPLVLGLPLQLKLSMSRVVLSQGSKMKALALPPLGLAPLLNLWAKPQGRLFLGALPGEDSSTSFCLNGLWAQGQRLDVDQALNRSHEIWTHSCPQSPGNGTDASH
The conditions noted are these: cited from earlier work.

The nature of data set [3]: Solubility of testosterone in water, oils, solvents and vehicles.
The conditions of data set [4]: nasal, cited from earlier work. This is another data set of the same source.
For data set [5] the following is noted: dissolved in polyethylene glycol (200 mg/ml); high variations; cited from earlier work.

Consider `CN(C)CC(=O)O[C@H]1CC[C@H]2[C@@H]3CCC4=CC(=O)CC[C@]4(C)[C@H]3CC[C@]12C` [testosterone 17β-N,N-dimethylglycinate], for which the “time to peak plasma concentration” value in data set [1] (25 mg dose) is no more than 12 min; in data set [1] (50 mg dose), no more than 20 min.

On to `C[C@]12CC[C@H]3[C@@H](CCC4=CC(=O)CC[C@@]43C)[C@@H]1CC[C@@H]2O` [Testosterone], for which the “fraction remaining unbound (free)” value in data set [2] (in men) is “about 2%”. For the same molecule, the “fraction remaining unbound (free)” value in data set [2] (in women) is recorded as “up to 3%”. Also, in data set [3], the “amount dissolved by diethyleneglycol ethyl ether alone” value is recorded as “more than 10%”, the “amount dissolved by dimethyl isosorbide (DMI)” value is on record as “more than 12%” and the “testosterone levels in the gel allowed by DMI with the other excipients” value is recorded as “at least 8.0%”. In addition, the “testosterone solubility in the oil based gel” value in data set [3] (oil based TBS-1A gel as printed) is given as no more than 4.5%.

What is called Tmax is the time from dosing to the highest level. For the molecule `CC(=O)[C@H]1CC[C@H]2[C@@H]3CCC4=CC(=O)CC[C@]4(C)[C@H]3CC[C@]12C` [progesterone], in data set [4] (co-ground and co-lyophilized progesterone/cyclodextrin powder mixtures), the Tmax was 2 to 5 min. Also, the “time of serum level decrease” value in data set [4] (progesterone/cyclodextrin powder mixtures) is given as no more than 20 min. Also, in data set [5], the “duration of serum level” value is “at least 8 hours”.
